Numbered stars: 1 amine (or outer) side, 2 acyl side, 3 side chain; on linkers, the order of the positions; unused ones are H or OH. Bridge positions count the residues as written; N and C are the ends. Square brackets hold non-standard residues; d marks the D form. Peptide text beside a SMILES is read from it. X1 = CC(=O)NC(C(=O)OC(C(C)C)C(N[*:1])C(=O)[*:2])C(O)C(C)C; PhLac = O=C(O)[CH](O)Cc1ccccc1; NMeT = CN[CH](C(=O)O)[CH](C)O; NMeA = CN[CH](C)C(=O)O; NMeDha = C=C(NC)C(=O)O
Legend:
[1] = system: N2A mouse neuroblastoma cells; experiment: Acute N2A neurite retraction induced by schizophrenia plasma autoantibodies; assay type: cell-based; settings: for % AutoAB-induced neurite retraction: 20 nM Pt 1 schizophrenia AutoAB; for effect on schizophrenia autoantibody-induced neurite retraction: M100907 two-hundred nanomolar, Y27632 ten micromolar, Y254890 one micromolar; for % of AutoAB-induced neurite retraction: 40 nM SCZ IgG (N = 2), alone 100 ± 0%
Experimental: (§1) Methods: Plasma from five older adults with chronic schizophrenia and eight age-matched patients having another neuropsychiatric, immune or metabolic disorder was subjected to Protein-A affinity chromatography to obtain IgG autoantibodies. Mean neurite retraction (5 minutes) or cell survival (24 hours) was determined in mouse N2A neuroblastoma cells incubated with autoantibodies in the presence or absence of specific antagonists of the Gq/11/PLC/IP3R signaling pathway, Gi-coupled, beta-arrestin2-directed pathways, or LY379268.
Acute neurite retraction assay. Percent of basal neurite length in N2A cells expressing one or more proximally-located dendrite-like process was determined after interval exposure to test substances (Zimering M B, J Endocrinol Diabetes. 2018; 5(2): 10).
A twenty nanomolar concentration of protein-A eluate fraction of plasma from Pt 1 with schizophrenia was incubated with N2A cells in the presence or absence of the indicated concentration of each Gq/11, GPCR antagonist. Results are the mean+/−SD of two experiments.
A forty nanomolar concentration of plasma autoantibodies (AutoAB) from Pt 1 or Pt, schizophrenia, was incubated in the presence or absence of the indicated concentration of RhoA/Rho kinase (ROCK) inhibitor, or individual antagonists of the Gq11/PLC/IP3R signaling pathway. […]

[2] = system: N2A mouse neuroblastoma cells; experiment: N2A cell survival (MTT) promoted by schizophrenia/psychosis plasma autoantibodies; assay type: cell-based; settings: LY379268 5 μM, pertussis toxin 100 ng/mL; for effect alone on N2A cell survival: without autoantibodies; for effect on autoantibody-induced N2A pro-survival/proliferation (words): M100907 500 nM, LY294002 20 μM, 24 hours
Experimental: as §1
N2A cell survival. MTT assay was performed 24 hours after incubation with test substances (Zimering M B, J Endocrinol Diabetes. 2018; 5(2): 10).
Serotonin 2A receptor activation leads to f3-arrestin-2-mediated desensitization and receptor internalization. However, β-arrestin-2 can also couple with diverse signaling pathways leading to enhanced cell proliferation and/or survival promotion.

N2A cells [3] = experiment: N2A cell loss (MTT) induced by TBI patient autoantibodies; assay type: cell-based, mouse; settings: M100907 250 nM (eight of eight patients); prazosin 850 nM (n=5); one-fiftieth dilution; 24 hours
Experimental: Cell survival was determined with MTT assay.
Mouse neuroblastoma cell loss. N2A cell loss was quantified using an MTT (3-(4,5-dimethylthiazol-2-yl)-2,5-diphenyltetrazolium bromide) tetrazolium reduction assay after overnight incubation with autoantibodies from TBI patients (Zimering M B, Endocrinol Diabetes Metab J. 2019 August; 3(4) pii: 118. Epub 2019 Aug. 14).

[4] = system: mouse N2A neuroblastoma cells; experiment: Acute N2A neurite retraction induced by TBI patient 5-HT2A receptor autoantibodies; assay type: cell-based; settings: for effect on neurite retraction in TBI patient autoantibodies, Example 4: 10 μM Y27632, 1 μM YM25489, 1 μM U73122, 50 μM 2-APB; for % of 5-HT2A receptor Autoantibody Neurite Retraction: 60 nM TBI autoantibodies (alone 100%); for effect on TBI autoantibody-induced acute neurite retraction: M100907 250-500 nM, Y27632 10 μM, other concentrations as in Table 17; for % of autoantibody Neurite Retraction from TBI patients: 60 nM IgG of representative TBI patient
Experimental: Acute neurite retraction. Mouse N2A neuroblastoma cells were maintained in Dulbecco's minimal essential medium with 10% fetal calf serum. […] Neurite retraction represents average neurite length-shortening after five minutes exposure to TBI (5-HT2A receptor) autoantibodies (60-100 nM) in the presence or absence of various G-protein coupled receptor (GPCR) or signaling pathway antagonists.
A 60 nanomolar concentration of the IgG autoantibodies (e.g., 5-HT2A receptor autoantibodies) from a representative TBI patient was incubated with N2A cells in the presence or absence of the indicated concentration of the selective GPCR antagonist.
A 60 nanomolar concentration of 5-HT2A receptor autoantibodies from TBI patients was incubated with N2A cells in the presence or absence of the indicated concentration of Gq11/PLC-gamma/IP3R antagonist or RhoA/Rho kinase pathway inhibitor.
Neurovascular 5-hydroxytryptamine (serotonin) 2A receptor (5-HT2AR) autoantibodies were previously reported to function as long-acting agonists in diabetic angiopathy and subsets of major depression, Parkinson's disease or dementia. The 5-HT2A receptor is highly expressed in specific brain regions underlying cognition, perception and mood regulation. Long-lasting 5-HT2A receptor activation by circulating autoantibodies might contribute to pathophysiology via central and peripheral mechanisms. Since the risk or incidence of Parkinson's disease, depression and dementia increase following traumatic brain injury (TBI), circulating neurotoxic autoantibodies (e.g., 5HT2AR) were tested, characterized and compared with autoantibodies from TBI patients vs. diabetic subsets with or without neurodegenerative disorders. Plasma IgG autoantibodies (e.g., 5-HT2AR autoantibodies) were obtained by protein-A affinity chromatography in ten male TBI patients mean age 64 years old.

[5] = system: mouse N2A neuroblastoma cells; experiment: Acute N2A neurite retraction induced by diabetic pathologies' IgG autoantibodies; assay type: cell-based; settings: for effect on Patient 1 IgG autoantibody-induced N2A neurite retraction: short peptides at 20 μg/mL, pre-incubated 5 minutes, Q..N-18 dose series; for Mean acute N2a neurite retraction (%): Pt 1 IgG one-fortieth dilution + 20 μg/mL peptide, IgG alone 100 + 0%
Experimental: Methods: Plasma or serum from fifty-six older adults with (n=49) or without (n=7) type 2 diabetes was subjected to Protein-A affinity chromatography to obtain IgG autoantibodies. Binding to a synthetic 18-meric linear synthetic peptide (SEQ ID NO: 1) corresponding to the second extracellular loop of the 5-hydroxytryptamine 2A receptor was tested in a 1/40th or higher dilution of the protein-A eluates. Mean acute neurite retraction (5 minutes) or cell survival (16-24 hours) was determined in mouse N2A neuroblastoma cells incubated with IgG autoantibodies in the presence or absence of three short, linear overlapping peptides comprising the second extracellular loop of the human 5-hydroxytryptamine 2A receptor (SEQ ID NOs: 2, 3 and 4).
N2A Acute Neurite Retraction assay. Acute neurite retraction assay was performed as described in Hu G, et al. Diabetes Care 2007; 30(4): 842-847.
Epitope mapping of region within 5-HT2A receptor, linear synthetic 5-HT2A receptor peptide targeted by autoantibodies. Next an epitope analysis was performed to determine the subregion within the 5-HT2A receptor second extracellular domain that binds to the type 2 diabetes pathologies' autoantibodies. Three overlapping short peptides were synthesized (SEQ ID NOs: 2, 3, and 4). N2a cells expressing neurites were pre-incubated with each of the peptides separately (for 5 minutes) prior to the addition of Patient 1, […] hypertension IgG autoantibodies to determine which of the three peptides could compete for binding to the test diabetic pathologies' autoantibodies causing inhibition of IgG autoantibody-induced neurite retraction.
The indicated concentration of the Q . . . […] Acute N2A neurite retraction was assessed after 5 minutes.

N2A cells [6] = experiment: Neurite retraction in N2A cells induced by 5-HT2AR agonists (DOI, serotonin); assay type: cell-based, mouse
Description: The mGlu2/3R agonist LY379268 was previously reported to cause positive allosteric modulation of the 5HT2AR protomer affinity at 5HT2AR/mGlu2R heteromers (González-Maeso J, et al., Nature. 2008; 452(7183):93-97).

[7] = Patient 1 DM refractory hypertension autoantibody, one sixtieth dilution, 5 minutes, 0 μg/mL peptide: 90 + 5%

## N[C@@]1(C(=O)O)CO[C@H]2[C@H](C(=O)O)[C@H]21 [LY379268]
[1]; 10 μM LY379268, n=12, IgG alone 52±7%
  mean level of neurite retraction in the presence of LY379268: 74±10%
[1]; 5-101.1M concentrations (so in the source), without autoantibodies
  effect alone on neurite retraction: no effect
[1]; 7.5-10 μM LY379268, mean [IgG] 17 ± 6 nM, N = 12 patients, five minutes, Pt IgG alone 52 ± 7%
  Mean N2A neurite retraction, Pt IgG + LY379268: 74 ±10%^∧
[1]; 10 micromolar LY379268, Pt 1 SCZ IgG, without LY379268: one microgram per milliliter (~7 nM)
  IgG autoantibody concentration giving 50% inhibition of N2A neurite outgrowth in the presence of LY379268: ~0.5 microgram per milliliter
[1]; 10 micromolar LY379268, Pt 1 SCZ IgG, without LY379268 ~7 nM
  IgG autoantibody concentration giving 50% inhibition of N2A neurite outgrowth in the presence of LY379268, molar: 3.5 nM
[2]
  effect alone on N2A cell survival: no effect
  effect on autoantibody-induced N2A pro-survival/proliferation (words): significantly blocked

## COc1cc2nc(N3CCN(C(=O)c4ccco4)CC3)nc(N)c2cc1OC [Prazosin]
N2A cells [3]
  effect on accelerated N2A cell death/loss by TBI autoantibodies: much less protective effect
[1]; antagonist 1 μM
  % AutoAB-induced neurite retraction: 72 ± 10%

## C[C@@H](N)[C@H]1CC[C@H](C(=O)Nc2ccncc2)CC1 [Peptide Y27632]
[1]
  effect on schizophrenia autoantibody-induced neurite retraction: completely prevented
[1]; inhibitor 10 μM
  % of AutoAB-induced neurite retraction: 0 ± 0%

## NCCOB(c1ccccc1)c1ccccc1 [Peptide 2-APB]
[1]; inhibitor 50 μM
  % of AutoAB-induced neurite retraction: 17 ± 1.9%
[4]
  effect on neurite retraction in TBI patient autoantibodies, Example 4: significantly blocked
[4]; inhibitor 25 μM
  % of 5-HT2A receptor Autoantibody Neurite Retraction: 0%

## COc1ccccc1Oc1c(NS(=O)(=O)c2ccc(C(C)(C)C)cc2)nc(-c2ncccn2)nc1OCCO [Bosentan]
[1]; antagonist 10 μM
  % AutoAB-induced neurite retraction: 94 ± 7%
[4]
  effect on TBI autoantibody-induced acute neurite retraction: little or no significant protective effect
[4]; antagonist 10 μM
  % of autoantibody Neurite Retraction from TBI patients: 80%

## QDDSKVFKEGSCLLADDN [Peptide 1]
[5]; [7]
  acute N2A neurite withdrawal, autoantibody + Q...N-18 at 3 μg/mL: 25 + 7%
  acute N2A neurite withdrawal, autoantibody + Q...N-18 at 5 μg/mL: 0 + 0%
[5]
  effect on Patient 1 IgG autoantibody-induced N2A neurite retraction: dose-dependently inhibited
[5]; sixty nanomolar protein-A eluate of Patient 1 plasma
  Half-maximal inhibition of autoantibody-induced acute neurite retraction: 2 µg/mL
[5]; sixty nanomolar protein-A eluate of Patient 1 plasma, read-out: Half-maximal inhibition of autoantibody-induced acute neurite retraction, corresponding molar concentration
  IC50: ~1000 nM

## CCCCc1nc(Cl)c(CO)n1Cc1ccc(-c2ccccc2-c2nn[nH]n2)cc1 [Losartan]
[1]; antagonist 10 μM
  % AutoAB-induced neurite retraction: 72 ± 8%

## O=C(c1ccc(F)cc1)C1CCN(CCn2c(=O)[nH]c3ccccc3c2=O)CC1 [Ketanserin]
[1]; antagonist 500 nM
  % AutoAB-induced neurite retraction: 43 ± 11%
[4]
  effect on TBI autoantibody-induced acute neurite retraction: substantially blocked
[4]; antagonist 1 μM
  % of autoantibody Neurite Retraction from TBI patients: 26%
[4]; antagonist 2 μM
  % of autoantibody Neurite Retraction from TBI patients: 18%

## Cc1cc(NC(=O)Nc2ccc3c(ccn3C)c2)sn1 [SB204741]
[1]; antagonist 1 μM
  % AutoAB-induced neurite retraction: 100 ± 0%
[4]
  effect on TBI autoantibody-induced acute neurite retraction: no significant protective effect
[4]; antagonist 1 μM
  % of autoantibody Neurite Retraction from TBI patients: 70%

## COc1ccc2c(c1)CC[C@@H]1[C@@H]2CC[C@]2(C)[C@@H](NCCCCCCN3C(=O)C=CC3=O)CC[C@@H]12 [Peptide U73122]
[1]; inhibitor 1 μM
  % of AutoAB-induced neurite retraction: 28 ± 15%
[4]
  effect on neurite retraction in TBI patient autoantibodies, Example 4: significantly blocked
[4]; inhibitor 1 μM
  % of 5-HT2A receptor Autoantibody Neurite Retraction: 10%

## COc1cc(CC(C)N)c(OC)cc1I (centres unmarked) [DOI, 1-[2,5-dimethoxy-4-iodophenyl]-2-aminopropane]
N2A cells [6]; in the absence of LY379268
  concentration of DOI needed to evoke 25-30% neurite inhibition: 10 µM
N2A cells [6]; in the presence of (10 μM) LY379268
  concentration of DOI needed to evoke 25-30% neurite inhibition: 5 µM
N2A cells [6]; saturating concentration, 20 μM
  peak neurite retraction: 40%

## QDDSKVF [Peptide 3, short overlapping peptide of 5-HT2A receptor second extracellular loop]
[5]; 5 minutes
  Mean acute N2a neurite retraction (%): 87 + 19%
[5]
  effect on Patient 1 IgG autoantibody-induced N2A neurite retraction: no significant effect

## VFKEGSC [Peptide 4, short overlapping peptide of 5-HT2A receptor second extracellular loop]
[5]; 5 minutes
  Mean acute N2a neurite retraction (%): 88 + 13%
[5]
  effect on Patient 1 IgG autoantibody-induced N2A neurite retraction: no significant effect

## C=C1C(=O)NC(C)C(=O)N(C)C(C)C(=O)NC(C(OC(=O)C(NC(C)=O)C(O)C(C)C)C(C)C)C(=O)N(C)C(C(C)OC)C(=O)OC(C)C(NC(C)=O)C(=O)OC(Cc2ccccc2)C(=O)N1C (centres unmarked) [YM254890] (Ac-T[PhLac][NMeDha]A[NMeA][X1][NMeT](Me); ester 1-C; configuration not given here)
[1]
  effect on schizophrenia autoantibody-induced neurite retraction: completely prevented
[1]; inhibitor 1 μM
  % of AutoAB-induced neurite retraction: 0 ± 0%
[4]
  effect on neurite retraction in TBI patient autoantibodies, Example 4: significantly blocked
[4]; inhibitor 1 μM
  % of 5-HT2A receptor Autoantibody Neurite Retraction: 11%

## Pertussis toxin
[2]
  effect alone on N2A cell survival: no effect
  effect on autoantibody-induced N2A pro-survival/proliferation (words): significantly blocked
[2]; listed as pertussis toxin
  effect on autoantibody-induced N2A pro-survival/proliferation (words): blocked

Reference: patent US11306122B2, “Compositions and methods of inhibiting the binding of plasma IgG autoantibodies to serotonin 2A receptor” (United States Government As Represented By The Department …, priority 2019, dated 2022)
